According to patent US20220378923A1, “BET DEGRADER” (KYOWA KIRIN CO., LTD., priority 2019, published 2022):
Where two headings read alike, the source gives them in different places.

Legend:
SU-DHL-4 cells = assay: Inhibitory effect on cell viability in SU-DHL-4 cell line (Test Example 1); format: cell-based, human; conditions: 72 hours; for IC50: SU-DHL-4 (wild type) cells, calculated using the measurement results of test example 1, read-out: SU-DHL-4 WT IC50; for IC90: SU-DHL-4 cells, Cell Counting Kit-8, concentration showing 90% inhibition of cell viability, read-out: SU-DHL-4 Cell Viability Inhibition Rate IC90
Outline: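 SU-DHL-4 cells were grown at 37° C. under 5% CO2 in RPMI1640 with 10 vol % heat-inactivated FBS plus penicillin/streptomycin, seeded and precultured for 18 to 25 hours, then exposed to test compound at 0.1 vol % DMSO for 72 hours. Viability was read with Cell Counting Kit-8 by absorbance at 450 nm.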

[1] = tested on: MYC mRNA expression in SU-DHL-4 cells; assay: Suppressive effect on MYC mRNA expression (Test Example 2); format: cell-based, human; conditions: test compound 100 nmol/L, 6 hours, qRT-PCR corrected by ACTB, GAPDH; for Suppression Rate of MYC mRNA Expression (%): HPRT1; for inhibition at 0.1 µM: Homo sapiens, HPRT1, read-out: Suppression Rate of MYC mRNA Expression (%)
Outline: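 SU-DHL-4 cells were treated for 6 h at 37 °C with compound (0.1% DMSO final). MYC mRNA was measured by TaqMan qRT-PCR and normalised to the geometric mean of ACTB, GAPDH and HPRT1. Suppression was calculated relative to untreated wells.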

Compound	IC50 (SU-DHL-4 cells)	IC90 (SU-DHL-4 cells)	Suppression Rate of MYC mRNA Expression (%) [1]	IC50 (SU-DHL-4 cells; Homo sapiens)	inhibition at 0.1 µM [1]	IC90 (SU-DHL-4 cells; Homo sapiens)
CCC(=O)N1c2ccccc2[C@H](Nc2ccc(-c3nnc(CNC(=O)[C@H]4CC[C@H](N[C@@H]5C[C@H](C)N(C(=O)CC)c6ccccc65)CC4)o3)cc2)C[C@@H]1C [Compound 7q, (1R,4R)-4-(((2S,4R)-2-Methyl-1-propionyl-1,2,3,4-tetrahydroquinolin-4-yl)amino)-N-((5-(4-(((2S,4R)-2-methyl-1-propionyl-1,2,3,4-tetrahydroquinolin-4-yl)amino)phenyl)-1,3,4-oxadiazol-2-yl)methyl)cyclohexane-1-carboxamide]	0.09 nM	0.24 nM	97.4%			
CCC(=O)N1c2ccccc2[C@H](Nc2ccc(Cn3cc(C(=O)Nc4ccc(N[C@@H]5C[C@H](C)N(C(=O)CC)c6ccccc65)cc4)nn3)cc2)C[C@@H]1C [Compound 5j, 1-(4-(((2S,4R)-2-Methyl-1-propionyl-1,2,3,4-tetrahydroquinolin-4-yl)amino)benzyl)-N-(4-(((2S,4R)-2-methyl-1-propionyl-1,2,3,4-tetrahydroquinolin-4-yl)amino)phenyl)-1H-1,2,3-triazolee-4-carboxamide]	0.04 nM	0.08 nM	96.8%			
CCC(=O)N1c2ccccc2[C@H](Nc2ccc(NC(=O)N3CCN(C(=O)c4ccc(N[C@@H]5C[C@H](C)N(C(=O)CC)c6ccccc65)cc4)CC3)cc2)C[C@@H]1C (relative stereo) [Compound 6m, 4-(4-(((2S,4R)-2-Methyl-1-propionyl-1,2,3,4-tetrahydroquinolin-4-yl)amino)benzoyl)-N-(4-(((2S*,4R*)-2-methyl-1-propionyl-1,2,3,4-tetrahydroquinolin-4-yl)amino)phenyl)piperazine-1-carboxamide]				0.08 nM	97%	
CCC(=O)N1c2ccccc2[C@H](Nc2ccc(NC(=O)CCCC(=O)Nc3ccc(Cn4cc(-c5c(C)noc5C)ccc4=O)cc3)cc2)C[C@@H]1C [Compound 17a, N^1-(4-((5-(3,5-Dimethylisoxazol-4-yl)-2-oxopyridin-1(2H)-yl)methyl)phenyl)-N5-(4-(((2S,4R)-2-methyl-1-propionyl-1,2,3,4-tetrahydroquinolin-4-yl)amino)phenyl)glutaramide]				0.1 nM	96.2%	0.16 nM
CCC(=O)N1c2ccccc2[C@H](Nc2ccc(NC(=O)COCC(=O)Nc3ccc(C4=NCc5nnc(C)n5-c5sc(C)c(C)c54)cc3)cc2)C[C@@H]1C [Compound 14d, N-(4-(((2S,4R)-2-Methyl-1-propionyl-1,2,3,4-tetrahydroquinolin-4-yl)amino)phenyl)-2-(2-oxo-2-((4-(2,3,9-trimethyl-6H-thieno[3,2-f][1,2,4]triazolo[4,3-a][1,4]diazepin-4-yl)phenyl)amino)ethoxy)acetamide]				0.1 nM	97.4%	
CCC(=O)N1c2ccccc2[C@H](NCCCCC(=O)NCc2cn(-c3ccc(N[C@@H]4C[C@H](C)N(C(=O)CC)c5ccccc54)cc3)nn2)C[C@@H]1C (relative stereo) [Compound 12f, 5-(((2S*,4R*)-2-Methyl-1-propionyl-1,2,3,4-tetrahydroquinolin-4-yl)amino)-N-((1-(4-(((2S,4R)-2-methyl-1-propionyl-1,2,3,4-tetrahydroquinolin-4-yl)amino)phenyl)-1H-1,2,3-triazol-4-yl)methyl)pentane amide]	0.24 nM	0.42 nM	97.9%			
